According to patent publication US8951969B2, “Compositions and methods for treating centrally mediated nausea and vomiting” (Helsinn Healthcare S.A., priority 2009, dated 2015):
Where two headings read alike, the source gives them in different places. Each block holds one compound with its values, some of them ahead of it.

Assays:
[1] = Netupitant + dexamethasone drug interaction study; assay type: in vivo, human
Procedure: The effect of netupitant on orally administered dexamethasone pharmacokinetics was evaluated in this study. This was a randomized, open, 3-period crossover study utilizing an incomplete Latin Square design where subjects were given dexamethasone alone, or oral Netupitant 100 mg., 300 mg. or 450 mg. each given with dexamethasone. Netupitant was given orally on Day 1 only. The dexamethasone regimen for each treatment was 20 mg. orally Day 1, followed by 8 mg. orally every 12 hours from Day 2 through Day 4. Nineteen subjects (12 male and 7 female) completed the study (i.e., all 3 treatment periods).

[2] = target: T1, NK1 receptors in human brain (Homo sapiens, UniProt P25103); assay: Netupitant PET receptor occupancy study (11C-GR205171 tracer); assay type: in vivo; details: for mean NK1-RO: 96 hours post dose
T1 construct: 6 healthy male volunteers (2 per dose level) receiving single doses of netupitant; from tissue; host or cells: brain of healthy male human volunteers, in vivo
Procedure: This was a randomized, open-label, positron emission tomography (PET) study using 11C-GR205171 as tracer in 6 healthy male volunteers (2 per dose level) receiving single doses of netupitant (100, 300 or 450 mg) to investigate the degree of occupancy of NK1 receptors in human brain, and to determine the relationship between plasma concentration of netupitant and NK1 receptor occupancy (RO).

[3] = Pharmacokinetics of combined dosage form: randomized, open, 3-way crossover study; assay type: in vivo; details: human, fasting; for half-life / Tmax: median (range)
Procedure: The effects of palonosetron on the pharmacokinetics (PK) of netupitant and the effects of netupitant on the PK of palonosetron were examined in healthy volunteers. A randomized, open, 3-way crossover study was conducted. Each subject participated in 3 treatment periods, each lasting approximately 12 days (Day −1 to Day 11). The treatment periods were separated by wash-out periods of no less than 14 days (between Day 1 of any 2 consecutive treatment periods). Treatment A: oral netupitant 450 mg. administered as single dose of three 150 mg. capsules. Treatment B: oral palonosetron 0.75 mg. and oral netupitant 450 mg. administered simultaneously as three capsules of 150 mg. netupitant followed by 1 capsule of 0.75 mg. palonosetron. Treatment C: oral palonosetron 0.75 mg. administered as single dose as one 0.75 mg. capsule. Doses were administered under fasting conditions. Subjects fasted over-night for approximately 10 hours. Water, however, was permitted up to 1 hour pre-dose. Food intake was permitted 4 hours post-dose, and water was allowed ad libitum 1 hour post-dose. Doses were administered with the subject in an upright position. The subjects remained in an upright position for 4 hours post-dose. The capsules were swallowed whole with 250 mL of room-temperature tap water. Repeated PK blood sampling (for netupitant and/or palonosetron) was performed. The primary PK variables assessed for netupitant and palonosetron were the maximum plasma concentration observed (Cmax), the area under the plasma concentration versus time curve from time zero to the last quantifiable sampling time point (t) (AUC0-t), and the area under the plasma concentration versus time curve from time zero to infinity (AUC0-inf). The secondary PK variables assessed were the terminal elimination half-life (t1/2, z), and the time at which the maximum plasma concentration was observed (tmax). Results are depicted in below Tables 3 and 4, as well as FIGS. 2 and 3.

[4] = system: highly emetogenic chemotherapy (HEC)-induced nausea and vomiting; assay: Phase 2 clinical efficacy study, netupitant + palonosetron + dexamethasone; assay type: in vivo, human; design: Total Control, Overall: percent of patients / Total Control, Acute: percent of patients / Total Control, Delayed: percent of patients / Complete Protection, Overall: percent of patients / Complete Protection, Acute: percent of patients / Complete Protection, Delayed: percent of patients: concentration or dose not given beside the values; details: MFAS
Source text: A phase 2 trial evaluated three single doses of netupitant combined with palonosetron and dexamethasone compared to palonosetron alone and dexamethasone to obtain dose ranging information for netupitant used with oral palonosetron in the CINV patient population.
The objective of the study was to compare the efficacy and safety of three single oral doses of netupitant combined with oral palonosetron and given with dexamethasone, versus oral palonosetron-alone given with dexamethasone (without netupitant) for the prevention of highly emetogenic chemotherapy (HEC)-induced nausea and vomiting. The FDA-approved oral aprepitant regimen given with IV ondansetron and dexamethasone was included in the study as an active comparator for exploratory purposes. The FDA-approved oral palonosetron 0.5 mg. dose was used in each applicable treatment group in this study.
This was a multicenter, randomized, double-blind, double-dummy, parallel group, stratified study. Eligible patients were randomized (stratified by gender) to one of the following treatment groups: • Group 1—0.5 mg. oral palonosetron on Day 1 (with an oral dexamethasone standard regimen: 20 mg. on Day 1 and 8 mg. BID from Day 2 through Day 4) • Group 2—100 mg. oral netupitant plus 0.5 mg. oral palonosetron on Day 1 (with an oral dexamethasone adjusted regimen*: 12 mg. on Day 1 and 8 mg. daily from Day 2 through Day 4) • Group 3—200 mg. oral netupitant plus 0.5 mg. oral palonosetron on Day 1 (with an oral dexamethasone adjusted regimen*: 12 mg. on Day 1 and 8 mg. daily from Day 2 to Day 4) • Group 4—300 mg. oral netupitant plus 0.5 mg. oral palonosetron on Day 1 (with dexamethasone adjusted regimen*: 12 mg. on Day 1 and 8 mg. daily from Day 2 to Day 4) • Group 5—125 mg. oral aprepitant plus IV ondansetron 32 mg. (both on Day 1) then 80 mg. oral aprepitant on Day 2 and Day 3, (all with an oral dexamethasone adjusted regimen: 12 mg. on Day 1 and 8 mg. daily from Day 2 through Day 4)
The primary efficacy endpoint was the complete response rate (defined as no emetic episodes, no rescue medication) within 120 hours after the start of the highly emetogenic chemotherapy administration. Secondary efficacy endpoints were: • Complete response for the 0-24 hour interval (acute phase); and for the 25-120 hour interval (delayed phase); • Complete protection (defined as no emesis, no rescue therapy, no significant nausea); Total control (defined as no emesis, no rescue therapy and no nausea); No nausea (maximum VAS<5 mm); No significant nausea (maximum VAS<25 mm); No rescue medication; No emesis. These endpoints were evaluated for the 0-120 hour interval (overall), acute and delayed phase. • Time to first emetic episode, Time to first rescue medication, Time to treatment failure (based on time to the first emetic episode or time to the first rescue medication, whichever occurs first); • Severity of nausea for the overall, acute and delayed phase; ● Patient global satisfaction with anti-emetic therapy by means of VAS for each 24 hour interval.

[5] = co-administration of 100 mg netupitant (oral, Day 1) vs dexamethasone alone
[6] = co-administration of 300 mg netupitant (oral, Day 1) vs dexamethasone alone
[7] = co-administration of 450 mg netupitant (oral, Day 1) vs dexamethasone alone
[8] = 0-24 h, Group 1 (Palo alone) / Group 5 (Aprepitant Regimen)
[9] = 0-120 h, Group 1 (Palo alone) / Group 5 (Aprepitant Regimen)
[10] = 25-120 h, Group 1 (Palo alone) / Group 5 (Aprepitant Regimen)
[11] = HEC (cisplatin) patients, Group 1 (Palo alone) / Group 5 (Aprepitant Regimen)

T1 sequence (P25103 whole entry): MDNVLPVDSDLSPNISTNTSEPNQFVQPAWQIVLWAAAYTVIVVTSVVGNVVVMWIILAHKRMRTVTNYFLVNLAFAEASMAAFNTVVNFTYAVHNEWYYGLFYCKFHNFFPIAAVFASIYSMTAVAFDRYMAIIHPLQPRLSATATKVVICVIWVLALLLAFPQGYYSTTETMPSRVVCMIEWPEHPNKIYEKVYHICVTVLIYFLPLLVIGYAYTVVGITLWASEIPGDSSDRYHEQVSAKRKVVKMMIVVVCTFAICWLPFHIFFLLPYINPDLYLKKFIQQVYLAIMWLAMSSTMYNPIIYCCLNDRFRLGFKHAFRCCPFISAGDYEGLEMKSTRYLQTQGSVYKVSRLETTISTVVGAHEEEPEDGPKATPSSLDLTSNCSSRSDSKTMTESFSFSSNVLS

Dexamethasone Cmin on Days 2-4, fold increase ([1]; co-administration of 100 mg netupitant): approximately 2.8 fold
AUC0-24 (Day 1) of dexamethasone, fold increase [1, 5]: 1.5 fold
AUC24-36 (Day 2) of dexamethasone, fold increase [1, 5]: 2.1 fold
AUC84-108 and AUC84-inf (Day 4) of dexamethasone, fold increase [1, 5]: 1.7 fold
Dexamethasone Cmin on Days 2-4, fold increase ([1]; co-administration of 300 mg netupitant): ~4.3 fold
AUC0-24 (Day 1) of dexamethasone, fold increase [1, 6]: 1.7 fold
AUC24-36 (Day 2) of dexamethasone, fold increase [1, 6]: 2.4 fold
AUC84-108 and AUC84-inf (Day 4) of dexamethasone, fold increase [1, 6]: 2.4 fold
Dexamethasone Cmin on Days 2-4, fold increase ([1]; co-administration of 450 mg netupitant): ~4.6 fold
AUC0-24 (Day 1) of dexamethasone, fold increase [1, 7]: 1.8 fold
AUC24-36 (Day 2) of dexamethasone, fold increase [1, 7]: 2.6 fold
AUC84-108 and AUC84-inf (Day 4) of dexamethasone, fold increase [1, 7]: 2.7 fold
Dexamethasone Cmax on Day 1, fold increase ([1]; co-administration with 100 mg netupitant): 1.1 fold
Dexamethasone Cmax on Day 1, fold increase ([1]; co-administration with 300 mg netupitant): 1.1 fold
Dexamethasone Cmax on Day 1, fold increase ([1]; co-administration with 450 mg netupitant): 1.2 fold
Dexamethasone Cmax on Day 2 and Day 4, fold increase ([1]; subjects administered netupitant (100, 300 or 450 mg)): approximately 1.7 fold
Structure (SMILES): C[C@@H]1C[C@H]2[C@@H]3CCC4=CC(=O)C=C[C@]4(C)[C@@]3(F)[C@@H](O)C[C@]2(C)[C@@]1(O)C(=O)CO [dexamethasone]

mean NK1-RO ([2]; 100 mg dose group, 4 of 6 regions): over 70%
mean NK1-RO ([2]; 450 mg dose group, 5 of 6 regions): ≥ 80%
NK1 receptor occupancy (NK1-RO) ([2]; 6 hours post dose, striatum, occipital cortex, frontal cortex and anterior cingulate, reached in 3 of 6 subjects (1 at 300 mg, 2 at 450 mg single oral dose)): ≥ 90%
Cmax ([3]; plasma netupitant, oral netupitant 450 mg single dose, mean (SD)): 650 ng/mL
AUC(0-t) ([3]; plasma netupitant, oral netupitant 450 mg single dose, mean (SD), read-out: Netupitant AUC0-t): 22800 ng·h/mL
AUC ([3]; plasma netupitant, oral netupitant 450 mg single dose, mean (SD), read-out: Netupitant AUCo-inf): 25900 ng·h/mL
half-life ([3]; plasma netupitant, oral netupitant 450 mg single dose, read-out: Netupitant t1/2, z (converted)): 71.8 h
Tmax ([3]; plasma netupitant, oral netupitant 450 mg single dose, read-out: Netupitant tmax): 4.5 h
Structure (SMILES): Cc1ccccc1-c1cc(N2CCN(C)CC2)ncc1N(C)C(=O)C(C)(C)c1cc(C(F)(F)F)cc(C(F)(F)F)c1 [Netupitant, 2-[3,5-bis(trifluoromethyl)phenyl]-N,2-dimethyl-N-[4-(2-methylphenyl)-6-(4-methylpiperazin-1-yl)pyridin-3-yl]propanamide]
No Emesis, Overall: percent of patients ([4]; 0-120 h, netupitant 100 mg + palonosetron 0.5 mg oral Day 1, with dexamethasone): 87.4%
No Emesis, Overall: percent of patients ([4]; 0-120 h, netupitant 200 mg + palonosetron 0.5 mg oral Day 1, with dexamethasone): 87.6%
No Emesis, Overall: percent of patients ([4]; 0-120 h, netupitant 300 mg + palonosetron 0.5 mg oral Day 1, with dexamethasone): 91.1%
CR, Overall Phase, 0-120 h: Percent of Patients ([4]; HEC (cisplatin) patients, netupitant 100 mg + palonosetron 0.5 mg oral Day 1, with dexamethasone): 87.4%
CR, Overall Phase, 0-120 h: Percent of Patients ([4]; HEC (cisplatin) patients, netupitant 200 mg + palonosetron 0.5 mg oral Day 1, with dexamethasone): 87.6%
CR, Overall Phase, 0-120 h: Percent of Patients ([4]; HEC (cisplatin) patients, netupitant 300 mg + palonosetron 0.5 mg oral Day 1, with dexamethasone): 89.6%

half-life ([3]; plasma palonosetron, oral palonosetron 0.75 mg single dose, read-out: Palonosetron t1/2, z (converted)): 34.7 h
Tmax ([3]; plasma palonosetron, oral palonosetron 0.75 mg single dose, read-out: Palonosetron tmax): 5.02 h
Structure (SMILES): Cl.O=C1c2cccc3c2[C@H](CCC3)CN1[C@@H]1CN2CCC1CC2 [Palonosetron, (3aS)-2-[(S)-1-Azabicyclo[2.2.2]oct-3-yl]-2,3,3a,4,5,6-hexahydro-1-oxo-1Hberiz[de]isoquinoline hydrochloride]
Complete Protection, Acute: percent of patients [4, 8]: 87.5%
No Emesis, Acute: percent of patients [4, 8]: 89.7%
No Rescue, Acute: percent of patients [4, 8]: 97.8%
Total Control, Acute: percent of patients [4, 8]: 71.3%
No Emesis, Overall: percent of patients [4, 9]: 76.5%
No Rescue, Overall: percent of patients [4, 9]: 95.6%
Complete Protection, Delayed: percent of patients [4, 10]: 73.5%
No Emesis, Delayed: percent of patients [4, 10]: 80.1%
No Rescue, Delayed: percent of patients [4, 10]: 97.1%
Total Control, Delayed: percent of patients [4, 10]: 52.2%
CR, Acute Phase, −24 h: Percent of Patients [4, 11]: 89.7%
CR, Delayed Phase, 25-120 h: Percent of Patients [4, 11]: 80.1%
CR, Overall Phase, 0-120 h: Percent of Patients [4, 11]: 76.5%
No Nausea, Acute: percent of patients ([4]; maximum VAS<5 mm, 0-24 h, Group 1 (Palo alone) / Group 5 (Aprepitant Regimen)): 75.0%
No Nausea, Overall: percent of patients ([4]; maximum VAS<5 mm, 0-120 h, Group 1 (Palo alone) / Group 5 (Aprepitant Regimen)): 50.7%
No Nausea, Delayed: percent of patients ([4]; maximum VAS<5 mm, 25-120 h, Group 1 (Palo alone) / Group 5 (Aprepitant Regimen)): 53.7%
No Significant Nauea, Acute: percent of patients ([4]; maximum VAS<25 mm, 0-24 h, Group 1 (Palo alone) / Group 5 (Aprepitant Regimen)): 93.4%
No Significant Nauea, Overall: percent of patients ([4]; maximum VAS<25 mm, 0-120 h, Group 1 (Palo alone) / Group 5 (Aprepitant Regimen)): 79.4%
No Significant Nauea, Delayed: percent of patients ([4]; maximum VAS<25 mm, 25-120 h, Group 1 (Palo alone) / Group 5 (Aprepitant Regimen)): 80.9%
Total Control, Overall: percent of patients ([4]; no emesis, no rescue therapy and no nausea, 0-120 h, Group 1 (Palo alone) / Group 5 (Aprepitant Regimen)): 50.0%
Complete Protection, Overall: percent of patients ([4]; no emesis, no rescue therapy, no significant nausea, 0-120 h, Group 1 (Palo alone) / Group 5 (Aprepitant Regimen)): 69.9%
